Laboratory results as given in the supplement of paper PMC10307832.

Tests used:
Test in all cases: relative viability (nuclei count vs DMSO), 5 days (fraction); higher = more cells survive
[1] = compound: C1=CC2=C(C=C(C(=C2N=C1)O)N=NC3=CC4=C(C=C3)C=C(C=C4)S(=O)(=O)O)S(=O)(=O)O + Nc1ncn([C@H]2C[C@H](O)[C@@H](CO)O2)c(=O)n1 [Decitabine] (partner 2 µM)
Outline: (§1)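 Relative viability was taken as the ratio of nuclei in treated wells to nuclei in vehicle wells. Lung cancer cell lines in 1536-well plates received compounds by pin tool one day after seeding, either one drug alone or a fixed anchor-drug dose plus five library-drug doses (not always all listed) in √10 steps. Nuclei were counted on 4× images after 5 days of treatment, and values are medians of duplicate plates.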

[2] = compound: C1=CC2=C(C=C(C(=C2N=C1)O)N=NC3=CC4=C(C=C3)C=C(C=C4)S(=O)(=O)O)S(=O)(=O)O + N=C(N)NC(=N)NCCc1ccccc1 [Phenformin] (partner 250 µM)
Outline: as §1

[3] = compound: C1=CC2=C(C=C(C(=C2N=C1)O)N=NC3=CC4=C(C=C3)C=C(C=C4)S(=O)(=O)O)S(=O)(=O)O + CC(=O)Nc1cccc(-n2c(=O)n(C3CC3)c(=O)c3c(Nc4ccc(I)cc4F)n(C)c(=O)c(C)c32)c1 [Trametinib] (partner 0.02 µM)
Outline: as §1

[4] = compound: O=C(NC1CCNCC1)c1n[nH]cc1NC(=O)c1c(Cl)cccc1Cl [AT-7519] + CC1(C)CCC(c2ccc(Cl)cc2)=C(CN2CCN(c3ccc(C(=O)NS(=O)(=O)c4ccc(N[C@H](CCN5CCOCC5)CSc5ccccc5)c(S(=O)(=O)C(F)(F)F)c4)cc3)CC2)C1 [Navitoclax] (partner 0.5 µM)
Outline: as §1

Cell Line	relative viability ([1]; first compound 0.08 µM)	relative viability ([1]; first compound 0.253 µM)	relative viability ([1]; first compound 0.8 µM)	relative viability ([1]; first compound 2.53 µM)	relative viability ([1]; first compound 8 µM)	relative viability ([2]; first compound 0.08 µM)	relative viability ([2]; first compound 0.253 µM)	relative viability ([2]; first compound 0.8 µM)	relative viability ([2]; first compound 2.53 µM)	relative viability ([2]; first compound 8 µM)	relative viability ([3]; first compound 0.08 µM)	relative viability ([3]; first compound 0.253 µM)	relative viability ([3]; first compound 0.8 µM)	relative viability ([3]; first compound 2.53 µM)	relative viability ([3]; first compound 8 µM)	relative viability ([4]; first compound 0.01 µM)	relative viability ([4]; first compound 0.03162 µM)	relative viability ([4]; first compound 0.3162 µM)	relative viability ([4]; first compound 1 µM)
NCI-H2342	0.793	0.705	0.724	0.806	0.705	0.629	0.582	0.537	0.621	0.528	0.82	0.884	0.943	0.808	0.764	–	–	–	–
HCC-15	0.723	0.689	0.637	0.625	0.596	0.491	0.481	0.457	0.422	0.444	0.427	0.387	0.428	0.377	0.365	0.632	0.639	0.647	0.351
A-427	0.558	0.554	0.534	0.547	0.551	0.324	0.293	0.283	0.288	0.313	0.721	0.719	0.718	0.781	0.732	0.973	0.899	1.01	0.599
NCI-H2228	–	–	–	–	–	0.441	0.341	0.296	0.303	0.423	0.81	0.453	0.603	0.443	0.703	1.08	0.72	1.04	0.437
NCI-H1734	0.493	0.439	0.461	0.488	0.503	0.398	0.381	0.356	0.326	0.35	0.728	0.654	0.687	0.72	0.694	0.893	0.758	0.686	0.452
PC-14	0.184	0.229	0.217	0.266	0.217	0.511	0.486	0.523	0.642	0.485	0.743	0.688	0.782	0.838	0.69	0.994	1.03	0.952	0.719
NCI-H1915	0.25	0.25	0.268	0.263	0.274	0.368	0.381	0.352	0.357	0.37	0.268	0.299	0.288	0.301	0.28	0.817	0.83	0.758	0.785
NCI-H1666	0.821	0.711	0.716	0.815	0.747	0.536	0.579	0.586	0.596	0.566	0.874	0.877	0.861	0.861	0.903	0.893	0.758	0.724	0.316
HCC-366	0.299	0.307	0.347	0.357	0.358	0.646	0.618	0.585	0.631	0.589	0.402	0.342	0.398	0.432	0.302	1.07	1.16	1.07	0.672
SK-MES-1	0.39	0.362	0.336	0.405	0.367	0.731	0.674	0.672	0.692	0.652	0.514	0.54	0.587	0.585	0.548	1.18	1.08	1.25	1.15
SW 1573	0.55	0.494	0.419	0.494	0.275	0.406	0.478	0.418	0.3	0.296	0.514	0.477	0.608	0.564	0.0865	0.921	0.873	0.704	0.224
NCI-H661	0.566	0.446	0.58	0.551	0.573	0.286	0.291	0.269	0.279	0.312	0.627	0.532	0.568	0.625	0.613	–	–	–	–
PC-3 [JPC-3]	0.843	0.793	0.833	0.883	0.814	0.474	0.473	0.477	0.478	0.494	0.78	0.725	0.737	0.735	0.644	0.754	0.714	0.867	0.934
NCI-H1623	–	–	–	–	–	0.565	0.541	0.609	0.589	0.278	–	–	–	–	–	–	–	–	–
Calu-6	–	–	–	–	–	–	–	–	–	–	–	–	–	–	–	1.09	0.89	0.901	0.115
LC-2-ad	0.909	0.744	0.834	0.808	0.812	0.575	0.553	0.548	0.588	0.651	0.932	0.851	0.941	0.892	0.98	0.312	0.487	0.367	0.214
